According to patent US7091225B2, “Substituted oxazoles and thiazoles as hPPAR alpha agonists” (SmithKline Beecham Corporation, priority 2000, dated 2006):

What was measured:
human PPAR alpha = biological target: T1, human PPAR alpha (Homo sapiens, UniProt Q07869); test: Transient transfection (transactivation) assay in CV-1 cells, hPPAR alpha; assay type: cell-based; details: PPAR transactivation activity; GAL4-PPAR LBD chimera in CV-1 cells; concentration achieving 50% of maximum activity; read-out: human αEC50
T1 construct: expressed in transfected cells; host or cells: CV-1 cells
T1 sequence (Q07869 239-466 limits assumed): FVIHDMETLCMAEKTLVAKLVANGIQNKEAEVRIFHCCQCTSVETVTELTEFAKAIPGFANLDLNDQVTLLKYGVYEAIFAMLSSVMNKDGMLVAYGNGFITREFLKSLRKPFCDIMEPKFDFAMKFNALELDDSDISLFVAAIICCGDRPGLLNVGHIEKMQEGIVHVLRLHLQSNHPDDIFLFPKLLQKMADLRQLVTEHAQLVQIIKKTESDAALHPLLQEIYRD
From the text: (§1) Most preferably, the compounds of formula (I) are selective hPPARalpha agonists. As used herein, a “selective hPPAR alpha agonist” is a hPPARalpha agonist whose EC50 for PPARalpha is at least 10 fold lower than its EC50 for PPAR gamma and PPAR delta. […] Most preferred compounds are greater than 100-fold selective hPPARalpha agonists (see Table 1).
(§2) Compounds were screened for functional potency in transient transfection assays in CV-1 cells for their ability to activate the PPAR subtypes (transactivation assay). A previously established chimeric receptor system was utilized to allow comparison of the relative transcriptional activity of the receptor subtypes on the same target gene and to prevent endogenous receptor activation from complicating the interpretation of results. See, for example, Lehmann, J. M.; Moore, L. B.; Smith-Oliver, T. A.; Wilkison, W. O.; Willson, T. M.; Kliewer, S. A., An antidiabetic thiazolidinedione is a high affinity ligand for peroxisome proliferator-activated receptor γ (PPARγ), J. Biol. Chem., 1995, 270, 12953–6. The ligand binding domains for murine and human PPAR alpha, PPAR gamma, and PPAR delta were each fused to the yeast transcription factor GAL4 DNA binding domain. […]

human PPAR delta = biological target: T2, human PPAR delta (Homo sapiens, UniProt Q03181); test: Transient transfection (transactivation) assay in CV-1 cells, hPPAR delta; assay type: cell-based; details: PPAR transactivation activity; GAL4-PPAR LBD chimera in CV-1 cells; concentration achieving 50% of maximum activity; read-out: human δEC50
T2 construct: expressed in transfected cells; host or cells: CV-1 cells
T2 sequence (Q03181 211-439 limits assumed): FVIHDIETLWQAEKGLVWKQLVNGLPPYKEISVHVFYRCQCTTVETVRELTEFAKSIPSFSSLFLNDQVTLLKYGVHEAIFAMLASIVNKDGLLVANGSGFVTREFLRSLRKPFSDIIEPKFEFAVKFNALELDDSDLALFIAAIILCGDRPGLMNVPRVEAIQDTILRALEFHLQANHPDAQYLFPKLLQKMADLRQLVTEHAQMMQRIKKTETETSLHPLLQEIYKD
From the text: as §1, §2

human PPAR gamma = biological target: T3, human PPAR gamma (Homo sapiens, UniProt P37231); test: Transient transfection (transactivation) assay in CV-1 cells, hPPAR gamma; assay type: cell-based; details: PPAR transactivation activity; GAL4-PPAR LBD chimera in CV-1 cells; concentration achieving 50% of maximum activity; read-out: human γEC50
T3 construct: expressed in transfected cells; host or cells: CV-1 cells
T3 sequence (P37231 238-503 limits assumed): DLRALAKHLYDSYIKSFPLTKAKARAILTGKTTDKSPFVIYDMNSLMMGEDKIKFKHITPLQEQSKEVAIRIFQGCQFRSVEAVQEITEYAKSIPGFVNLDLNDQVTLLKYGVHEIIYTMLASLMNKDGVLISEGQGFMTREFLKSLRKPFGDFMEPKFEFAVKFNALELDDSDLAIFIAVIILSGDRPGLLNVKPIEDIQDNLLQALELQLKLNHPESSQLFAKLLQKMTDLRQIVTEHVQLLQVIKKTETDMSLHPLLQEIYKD
From the text: as §1, §2

## Cc1nc(-c2ccc(C(F)(F)F)cc2)sc1COc1cccc(COC(C)(C)C(=O)O)c1 [Example 2, 2-methyl-2-{(3-[4-methyl-2-(4-trifluoromethylphenyl)thiazol-5-yl]methoxy)benzyloxy}propionic acid]
Human PPAR alpha
  EC50: 2 nM
Human PPAR delta
  EC50: 3200 nM
Human PPAR gamma
  EC50: 2600 nM

## Cc1nc(-c2ccc(C(F)(F)F)cc2)sc1COc1cccc(CSCC(=O)O)c1 [Example 4, 2-{[(3-[4-methyl-2-(4-trifluoromethylphenyl)thiazol-5-yl]methoxy)benzyl]thio}acetic acid]
Human PPAR alpha
  EC50: 10 nM
Human PPAR delta
  EC50: 1600 nM
Human PPAR gamma
  EC50: 3600 nM

## Cc1nc(-c2ccc(C(F)(F)F)cc2)sc1COc1cccc(COCC(=O)O)c1 [Example 6, 2-{(3-[4-methyl-2-(4-trifluoromethylphenyl)thiazol-5-yl]methoxy)benzyloxy}acetic acid]
other
  melting point: 121 °C

## Cc1nc(-c2ccc(C(F)(F)F)cc2)sc1C(C)(C)Oc1cccc(COC(C)(C)C(=O)O)c1 [Example 10, 2-methyl-2-[3-{1-methyl-1-[4-methyl-2-(4-trifluoromethylphenyl)thiazol-5-yl]ethoxy}benzyloxy]propionic acid]
other
  melting point: 136 °C
